Measurements from patent US11548900B2, “Oxazino-quinazoline and oxazino-quinoline type compound, preparation method and uses thereof” (BEIJING SCITECH-MQ PHARMACEUTICALS LIMITED, priority 2018, dated 2023).

Columns and labels:
HER2 kinase = HER2 kinase (Homo sapiens (Human), UniProt P04626); experiment: Inhibition of HER2 kinase activity (ULight-labeled PolyGT substrate); format: biochemical; conditions: HER2 kinase 10 nM, ATP 10 μM, 2 hours
Method in brief: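 HER2 kinase at 10 nM with 10 μM ATP and 100 nM ULight-PolyGT, 5 min enzyme–compound preincubation, then 2 h reaction at room temperature in the dark. Compounds at 11 3-fold concentrations, 2.5 μM top to 0.042 nM, 1% DMSO, duplicates. TR-FRET 665/615 ratio; IC50 from inhibition versus DMSO and no-compound controls.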

EGFR kinase = EGFR kinase (Homo sapiens (Human), UniProt P00533); experiment: Inhibition of EGFR kinase activity (ULight-labeled JAK-1 (Tyr1023) peptide substrate); format: biochemical; conditions: EGFR kinase 0.35 nM, ATP 150 μM, 2 hours
EGFR kinase, sequence (P00533 25-1210): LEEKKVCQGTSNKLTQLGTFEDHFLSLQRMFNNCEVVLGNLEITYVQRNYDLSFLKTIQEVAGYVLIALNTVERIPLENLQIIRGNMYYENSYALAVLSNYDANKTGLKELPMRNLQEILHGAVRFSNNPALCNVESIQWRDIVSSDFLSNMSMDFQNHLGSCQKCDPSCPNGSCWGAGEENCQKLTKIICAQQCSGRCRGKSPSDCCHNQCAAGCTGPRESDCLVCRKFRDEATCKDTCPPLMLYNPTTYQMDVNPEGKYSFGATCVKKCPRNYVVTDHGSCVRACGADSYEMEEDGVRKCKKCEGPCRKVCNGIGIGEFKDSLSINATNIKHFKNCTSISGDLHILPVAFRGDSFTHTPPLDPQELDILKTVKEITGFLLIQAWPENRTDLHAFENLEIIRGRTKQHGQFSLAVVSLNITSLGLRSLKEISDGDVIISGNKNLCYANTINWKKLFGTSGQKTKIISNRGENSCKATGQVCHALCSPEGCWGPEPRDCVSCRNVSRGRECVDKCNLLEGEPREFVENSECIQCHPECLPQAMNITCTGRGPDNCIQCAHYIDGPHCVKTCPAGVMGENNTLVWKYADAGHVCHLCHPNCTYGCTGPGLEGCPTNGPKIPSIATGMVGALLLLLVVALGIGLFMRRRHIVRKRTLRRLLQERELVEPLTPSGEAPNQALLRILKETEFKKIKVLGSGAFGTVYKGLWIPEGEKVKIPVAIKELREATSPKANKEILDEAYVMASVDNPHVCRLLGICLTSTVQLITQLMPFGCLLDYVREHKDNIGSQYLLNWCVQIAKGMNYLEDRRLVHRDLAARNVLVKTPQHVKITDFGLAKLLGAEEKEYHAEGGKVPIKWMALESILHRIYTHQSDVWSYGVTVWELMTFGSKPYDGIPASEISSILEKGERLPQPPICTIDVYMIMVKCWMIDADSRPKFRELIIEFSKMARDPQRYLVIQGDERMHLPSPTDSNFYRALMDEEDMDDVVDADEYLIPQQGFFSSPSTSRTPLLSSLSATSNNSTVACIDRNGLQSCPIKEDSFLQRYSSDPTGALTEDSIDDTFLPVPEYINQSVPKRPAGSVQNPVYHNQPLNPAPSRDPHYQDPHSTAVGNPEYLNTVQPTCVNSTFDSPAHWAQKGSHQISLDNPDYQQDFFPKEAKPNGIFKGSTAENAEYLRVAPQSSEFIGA
Description: The assay for the inhibition of EGFR and HER2 kinase activity by small molecular compounds was carried out using the method as follows:
1) Dilution of the compounds
In a 96-well plate a, the compounds were diluted with DMSO using a 3-fold gradient dilution to form 11 concentrations, the 12th concentration is pure DMSO (as a positive control); and in a new 96-well plate b the above solutions were diluted 25 times with ultrapure water (DMSO concentration is 4%).
2) Transferring the compounds to 384-well plate
The compound solutions diluted with ultrapure water in the 96-well plate b above was transferred to the corresponding wells of a 384-well plate in duplicate.
3) Addition of 4×kinase solution: 2.5 μl of the above 4× kinase solution was taken using multichannel pipette and added to the corresponding reaction wells of the 384-well plate, mixed well and pre-reacted at room temperature for 5 minutes.
4) Addition of 2×substrate/ATP mixed solution: 5 μl of the above 2×substrate/ATP mixed solution was taken using multichannel pipette and added to the corresponding reaction wells of the 384-well plate.
5) Negative control: negative control wells were set in the 384-well plate, and 2.5 μl 4×substrate, 2.5 μl 4×enzyme solution, 2.5 μl 1×Kinase Assay Buffer and 2.5 μl ultrapure water containing 4% DMSO were added to each well.
6) Mixed by centrifugation and kept at room temperature for 2 hours in the dark.
7) Termination of the enzymatic reaction:
5 μl of the above 4× stop solution was pipetted to the corresponding wells of the 384-well plate, centrifuged and mixed, and reacted at room temperature for 5 minutes.
5 μl of the above 4× detection solution was pipetted into the corresponding wells of the 384-well plate, centrifuged and mixed, and reacted at room temperature for 1 hour.
9) The 384-well plate was placed into a microplate reader and the signal was detected using the corresponding program.
10) IC50 analysis: Well reading value=10000*EU665 value/EU615 value Inhibition rate=(reading value of positive control well−reading value of experimental well)/(reading value of positive control well−reading value of negative control well)*100% Corresponding IC50s can be calculated by entering the drug concentrations and the corresponding inhibition rates into GraphPad Prism 5.
Conditions of experiment for screening EGFR kinase inhibitory molecules:
The final concentration of EGFR kinase in the reaction system is 0.35 nM, and the final concentration of ATP is 150 μM, the final concentration of substrate ULight™-labeled JAK-1 (Tyr1023) Peptide is 100 nM, and the enzymatic reaction time is 2 hours.
The maximum final concentration of the compound in the reaction system is 2.5 μM, 11 concentrations were made with a 3-fold gradient dilution, and the minimal final concentration is 0.042 nM. The final concentration of DMSO is 1%.

BT474 cells = experiment: Inhibition of cell proliferation, BT474 (CCK-8, 72 h); format: cell-based; conditions: Homo sapiens, BT-474, 72 h incubation
Description: The assay for the inhibition of cell proliferation by small molecular compounds was carried out using the method as follows:
1. 600 μL pancreatin was added to a T75 cell culture flask, which was digested in a 37° C. incubator for about 1 min before 5 mL of DMEM complete culture solution was added, blew evenly, transferred to a 15 mL centrifuge tube, and centrifuged at 1000 rpm for 4 min;
2. The supernatant was removed and 5 mL DMEM complete culture solution was added, blew evenly, and 10 μL cell suspension was taken and mixed with 10 μL 0.4% Trypan Blue, and counted using a cell counter;
3. BT474 and HCC827 cell lines were seeded in 96-well plates at a cell density of 10,000 and 3000 cells/well/80 μL, respectively, and cultured overnight. Only sterile water was added to the 36 wells on the periphery of the 96-well plate without adding cells, and only the 60 wells in the center of the 96-well plate were used for cell assays and controls;
4. Dilution of compounds: the compounds were diluted with a 3-fold dilution to make 10 concentrations in total with an initial concentration of 10 mM;
5. 20 μL of different compounds with different concentrations were added to each well, and 20 μL of complete culture solution was added to the remaining wells. The final concentration of DMSO in each well is 0.25%;
6. After 72 h of incubation, 10 μL CCK-8 reagent was added to each well, and incubated at 37° C. for 1-2 h; and the OD value was read at 450 nm;
7. Cell survival rate (%)=[(As−Ab)/(Ac−Ab)]*100%
As: Assay well (medium containing cell, CCK-8, compound)
Ac: Control well (medium containing cell, CCK-8)
Ab: Blank well (CCK-8, medium without cell and compound)
8. The value was imported into Graphpad Prism5 software for the calculation of IC50s (compound concentration at which 50% maximum survival rate is observed).

HER2 kinase, sequence (P04626 23-1255): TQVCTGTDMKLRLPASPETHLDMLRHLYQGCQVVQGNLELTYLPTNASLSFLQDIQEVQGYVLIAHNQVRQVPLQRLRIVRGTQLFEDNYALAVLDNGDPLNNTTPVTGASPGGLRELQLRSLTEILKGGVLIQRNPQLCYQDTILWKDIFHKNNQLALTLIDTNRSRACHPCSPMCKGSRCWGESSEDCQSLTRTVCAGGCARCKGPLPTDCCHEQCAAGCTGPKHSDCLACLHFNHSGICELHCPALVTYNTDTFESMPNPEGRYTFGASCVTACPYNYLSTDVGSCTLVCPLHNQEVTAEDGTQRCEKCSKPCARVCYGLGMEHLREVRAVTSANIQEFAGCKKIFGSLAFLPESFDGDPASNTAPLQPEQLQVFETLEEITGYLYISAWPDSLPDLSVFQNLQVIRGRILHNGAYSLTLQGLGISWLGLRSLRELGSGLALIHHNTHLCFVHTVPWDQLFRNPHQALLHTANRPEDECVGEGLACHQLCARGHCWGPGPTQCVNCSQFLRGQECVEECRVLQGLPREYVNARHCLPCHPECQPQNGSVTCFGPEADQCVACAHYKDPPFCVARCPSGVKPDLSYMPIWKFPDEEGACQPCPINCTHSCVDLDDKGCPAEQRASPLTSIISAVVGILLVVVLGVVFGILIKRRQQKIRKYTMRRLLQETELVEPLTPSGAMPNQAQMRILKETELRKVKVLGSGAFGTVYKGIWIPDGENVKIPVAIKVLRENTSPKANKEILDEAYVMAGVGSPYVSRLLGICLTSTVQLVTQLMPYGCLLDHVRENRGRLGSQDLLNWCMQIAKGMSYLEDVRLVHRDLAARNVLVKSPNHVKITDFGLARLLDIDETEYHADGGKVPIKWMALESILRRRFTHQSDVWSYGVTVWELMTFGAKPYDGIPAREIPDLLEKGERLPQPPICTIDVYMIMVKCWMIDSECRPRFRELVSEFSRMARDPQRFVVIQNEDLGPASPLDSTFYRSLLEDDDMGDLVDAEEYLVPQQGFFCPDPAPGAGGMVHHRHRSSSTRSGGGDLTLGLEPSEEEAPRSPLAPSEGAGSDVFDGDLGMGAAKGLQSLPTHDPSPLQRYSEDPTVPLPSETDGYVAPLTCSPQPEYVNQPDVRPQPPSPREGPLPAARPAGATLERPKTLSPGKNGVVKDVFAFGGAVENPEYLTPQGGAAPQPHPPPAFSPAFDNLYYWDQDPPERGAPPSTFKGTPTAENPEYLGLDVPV

SMILES	IC50 (HER2 kinase) [nM]	IC50 (EGFR kinase) [nM]	IC50 (BT474 cells) [nM]
CN(C)C/C=C/C(=O)N1CCOc2c1ccc1ncnc(Nc3ccc(OCc4ccncc4)cc3)c21 [Example 77, (E)-4-(dimethylamino)-1-(10-((4-(pyridin-4-ylmethoxy)phenyl)amino)-2,3-dihydro-4H-[1,4]oxazino[2,3-f]quinazolin-4-yl)but-2-en-1-one]	≤ 50	500 to 5000	
COCCCCNC/C=C/C(=O)N1CCOc2c1ccc1ncnc(Nc3ccc(Oc4ccccc4F)cc3)c21 [Example 99, (E)-1-(10-((4-(2-fluorophenoxy)phenyl)amino)-2,3-dihydro-4H-[1,4]oxazino[2,3-f]quinazolin-4-yl)-4-((4-methoxybutyl)amino)but-2-en-1-one]	≤ 50	50 to 500	
CC(C)N(C)C/C=C/C(=O)N1CCOc2c1ccc1ncnc(Nc3ccc(Oc4ccn5ncnc5c4)c(Cl)c3)c21 [Example 127, (E)-1-(10-((4-([1,2,4]triazolo[1,5-a]pyridin-7-yloxy)-3-chlorophenyl)amino)-2,3-dihydro-4H-[1,4]oxazino[2,3-f]quinazolin-4-yl)-4-(isopropyl(methyl)amino)but-2-en-1-one]	≤ 50	50 to 500	≤ 50
O=C(/C=C/CN1CCCCC1)N1CCOc2c1ccc1ncnc(Nc3ccc(Oc4ccn5ncnc5c4)c(Cl)c3)c21 [Example 128, (E)-1-(10-((4-([1,2,4]triazolo[1,5-a]pyridin-7-yloxy)-3-chlorophenyl)amino)-2,3-dihydro-4H-[1,4]oxazino[2,3-f]quinazolin-4-yl)-4-(piperidin-1-yl)but-2-en-1-one]	≤ 50	50 to 500	≤ 50
CN(C/C=C/C(=O)N1CCOc2c1ccc1ncnc(Nc3ccc(Oc4ccn5ncnc5c4)c(Cl)c3)c21)C1CCC1 [Example 129, (E)-1-(10-((4-([1,2,4]triazolo[1,5-a]pyridin-7-yloxy)-3-chlorophenyl)amino)-2,3-dihydro-4H-[1,4]oxazino[2,3-f]quinazolin-4-yl)-4-(cyclobutyl(methyl)amino)but-2-en-1-one]	≤ 50	50 to 500	≤ 50
CCN(CC)C/C=C/C(=O)N1CCOc2c1ccc1ncnc(Nc3ccc(Oc4ccn5ncnc5c4)c(Cl)c3)c21 [Example 131, (E)-1-(10-((4-([1,2,4]triazolo[1,5-a]pyridin-7-yloxy)-3-chlorophenyl)amino)-2,3-dihydro-4H-[1,4]oxazino[2,3-f]quinazolin-4-yl)-4-(diethylamino)but-2-en-1-one]	≤ 50	50 to 500	≤ 50
Cc1cc(Nc2ncnc3ccc4c(c23)OCCN4C(=O)/C=C/CN2CCN(C)CC2)ccc1Oc1ccn2ncnc2c1 [Example 132, (E)-1-(10-((4-([1,2,4]triazolo[1,5-a]pyridin-7-yloxy)-3-methylphenyl)amino)-2,3-dihydro-4H-[1,4]oxazino[2,3-f]quinazolin-4-yl)-4-(4-methylpiperazin-1-yl)but-2-en-1-one]	≤ 50	50 to 500	≤ 50
Cc1cc(Nc2ncnc3ccc4c(c23)OCCN4C(=O)/C=C/CN2CCCCC2)ccc1Oc1ccn2ncnc2c1 [Example 134, (E)-1-(10-((4-([1,2,4]triazolo[1,5-a]pyridin-7-yloxy)-3-methylphenyl)amino)-2,3-dihydro-4H-[1,4]oxazino[2,3-f]quinazolin-4-yl)-4-(piperidin-1-yl)but-2-en-1-one]	≤ 50	50 to 500	≤ 50

Now from value to compound:

IC50 (HER2 kinase) [nM]	IC50 (EGFR kinase) [nM]	IC50 (BT474 cells) [nM]	SMILES
≤ 50	≤ 50	≤ 50	CN(C)C/C=C/C(=O)N1CCOc2c1ccc1ncnc(Nc3ccc(Sc4ccc(F)cc4)cc3)c21 [Example 70, (E)-4-(dimethylamino)-1-(10-((4-((4-fluorophenyl)thio)phenyl)amino)-2,3-dihydro-4H-[1,4]oxazino[2,3-f]quinazolin-4-yl)but-2-en-1-one]
≤ 50	50 to 500	≤ 50	Cc1cc(Nc2ncnc3ccc4c(c23)OCCN4C(=O)/C=C/CN(C)C)ccc1Oc1ccn2ncnc2c1 [Example 124, (E)-1-(10-((4-([1,2,4]triazolo[1,5-a]pyridin-7-yloxy)-3-methylphenyl)amino)-2,3-dihydro-4H-[1,4]oxazino[2,3-f]quinazolin-4-yl)-4-(dimethylamino)but-2-en-1-one]
≤ 50	50 to 500	≤ 50	CN(C)C/C=C/C(=O)N1CCOc2c1ccc1ncnc(Nc3ccc(Oc4ccn5ncnc5c4)c(Cl)c3)c21 [Example 125, (E)-1-(10-((4-([1,2,4]triazolo[1,5-a]pyridin-7-yloxy)-3-chlorophenyl)amino)-2,3-dihydro-4H-[1,4]oxazino[2,3-f]quinazolin-4-yl)-4-(dimethylamino)but-2-en-1-one]
≤ 50	≤ 50	≤ 50	CN1CCN(C/C=C/C(=O)N2CCOc3c2ccc2ncnc(Nc4ccc(Oc5ccn6ncnc6c5)c(Cl)c4)c32)CC1 [Example 126, (E)-1-(10-((4-([1,2,4]triazolo[1,5-a]pyridin-7-yloxy)-3-chlorophenyl)amino)-2,3-dihydro-4H-[1,4]oxazino[2,3-f]quinazolin-4-yl)-4-(4-methylpiperazin-1-yl)but-2-en-1-one]
≤ 50	50 to 500	≤ 50	COCCN(C)C/C=C/C(=O)N1CCOc2c1ccc1ncnc(Nc3ccc(Oc4ccn5ncnc5c4)c(Cl)c3)c21 [Example 130, (E)-1-(10-((4-([1,2,4]triazolo[1,5-a]pyridin-7-yloxy)-3-chlorophenyl)amino)-2,3-dihydro-4H-[1,4]oxazino[2,3-f]quinazolin-4-yl)-4-((2-methoxyethyl)(methyl)amino)but-2-en-1-one]
≤ 50	500 to 5000	≤ 50	Cc1cc(Nc2ncnc3ccc4c(c23)OCCN4C(=O)/C=C/CN(C)C(C)C)ccc1Oc1ccn2ncnc2c1 [Example 133, (E)-1-(10-((4-([1,2,4]triazolo[1,5-a]pyridin-7-yloxy)-3-methylphenyl)amino)-2,3-dihydro-4H-[1,4]oxazino[2,3-f]quinazolin-4-yl)-4-(isopropyl(methyl)amino)but-2-en-1-one]
≤ 50	50 to 500	≤ 50	Cc1cc(Nc2ncnc3ccc4c(c23)OCCN4C(=O)/C=C/CN(C)C2CCC2)ccc1Oc1ccn2ncnc2c1 [Example 135, (E)-1-(10-((4-([1,2,4]triazolo[1,5-a]pyridin-7-yloxy)-3-methylphenyl)amino)-2,3-dihydro-4H-[1,4]oxazino[2,3-f]quinazolin-4-yl)-4-(cyclobutyl(methyl)amino)but-2-en-1-one]
